This is an account of results in patent US6121257A, “Sulfamate containing macrocyclic immunomodulators” (Abbott Laboratories, priority 1999, dated 2000).

Data set [1] concerns human mixed lymphocyte reaction (MLR). Put plainly: human mixed lymphocyte reaction (MLR) assay. Format: cell-based. The conditions noted are these: Table 1. The protocol:
The immunosuppressant activity of the compounds of the present invention was determined using the human mixed lymphocyte reaction (MLR) assay described by Kino, T. et al., in Transplantation Proceedings, XIX(5):36-39, Suppl. 6 (1987), hereby incorporated by reference.

The nature of a further data set: in vivo. On the set-up: species or system Lewis rats. The conditions noted are these: rat, 5 mg/kg. How it is done:
In Vivo Assay of Biological Activity Whole blood concetration in the Rat.
Lewis rats (obtained from Charles River, Wilmington, Mass.), weighing 225-250 grams, were acclimated for one week in a AAALAC approved facility. All animals were fasted overnight prior to dosing and throughout the study period but were permitted free access to water. Groups of animals were given FK-506 or Example 14 at a dose of 5 mg/kg. Drugs were given in a 2 ml/kg volume of 10% ethanol, 40% propylene glycol and 2% cremophore in 5% dextrose solution for both oral (p.o.) and intraperitoneal (i.p.) administration, and in a 1 ml/kg volume of the same vehicle without cremophor for intravenous (i.v.) dosing. Blood samples were collected from the tail vein in heparinized tubes at selected time points 0.25, 2.0, and 4.0 hours after dosing.
Drugs were separated from the hemolyzed whole blood contaminants utilizing liquid-liquid extraction with ethyl acetate:hexane (1:1 by volume). Samples were centrifuged at 1200 x g for 10 minutes (4° C.) and a constant volume of the organic layer was transferred to a conical centrifuge tube and evaporated to dryness with a gentle stream of dry air over low heat (~35° C.). The samples were reconstituted with 40% (v/v) acetonitrile in water with vortexing. The compounds of interest were separated from the co-extracted components by a 5 cm×4.6 mm, 3 μm Spherisorb ODS-2 column (Regis, Morton Grove, Ill.) with an acetonitrile:methanol: 0.1% trifluoroacetic acid/0.01 M tetramethylammonium perchlorate mixture (45:5:50 by volume for FK506, 40:5:55 for analogue Example 14) at a flow rate of 1.0 ml/min with UV detection at 205 nm. The temperature of the HPLC column was maintained at 70° C.
The concentration of each sample in whole blood was calculated by a least squares linear regression analysis of the peak area compared to spiked rat blood standards.

Regarding `CC[C@@H]1/C=C(\C)C[C@H](C)C[C@H](OC)[C@H]2O[C@@](O)(C(=O)C(=O)N3CCCC[C@H]3C(=O)O[C@H](/C(C)=C/[C@@H]3CC[C@@H](OS(N)(=O)=O)[C@H](OC)C3)[C@H](C)[C@@H](O)CC1=O)[C@H](C)C[C@@H]2OC` [Example 14], the half-inhibitory concentration (IC50) (commonly the concentration that inhibits the measured activity by half) in data set [1] came out at 0.82 nM. For the same compound, in “in vivo”, the concentration at 0.25 h was found to be 1400 ng/mL, the concentration at 2 h worked out at 50 ng/mL and the “elimination from the blood” value is “rapidly eliminated from the blood after 2 hours”. In the data set “in vivo” (240 min), the “Whole Blood Concentration at 4 hours” value came to 0.00 µg/mL.

For `C=CC[C@@H]1/C=C(\C)C[C@H](C)C[C@H](OC)[C@H]2O[C@@](O)(C(=O)C(=O)N3CCCC[C@H]3C(=O)O[C@H](/C(C)=C/[C@@H]3CC[C@@H](O)[C@H](OC)C3)[C@H](C)[C@@H](O)CC1=O)[C@H](C)C[C@@H]2OC` [FK-506, reference compound], in “in vivo”, the concentration at 0.25 h came out at 1140 ng/mL, the concentration at 2 h was found to be 440 ng/mL and the concentration at 4 h worked out at 430 ng/mL.
